Reference: US8129527B2, “Analogs of dehydrophenylahistins and their therapeutic use” (Nereus Pharmacuticals, Inc., priority 2006, dated 2012)
Read-outs that look alike come from different tables or passages of the source.

What was measured:
HT-29 human colon tumor = assay: HT-29 Human Colon Tumor Xenograft Model; assay type: in vivo
Protocol: (§1) Selected novel compounds were administered as monotherapy via the intraperitoneal (i.p.) route at the doses indicated for the individual study; for the combination studies the selected reference chemotherapy agents were injected 15-30 min prior to the compound.
(§2) Saline dilutions are used to achieve the injection concentrations used for the reference compounds.
Animals were implanted subcutaneously (s.c.) by trocar with fragments of HT-29 tumors harvested from s.c. growing tumors in nude mice hosts. When the tumor size reached 5 mm×5 mm (about 10-17 days) the animals were matched into treatment and control groups. Mice were weighed twice weekly and tumor measurements were obtained using calipers twice weekly, starting on Day 1. The tumor measurements were converted to estimated mg tumor weight using the formula (W^2×L)/2. When the estimated tumor weight of the control group reached an average of 1000 mg the mice were weighed, sacrificed and the tumor removed.

[1] = system: MDA-231 human breast tumor; assay: MDA-231 Human Breast Tumor Orthotopic Xenograft Model (mammary fat pad); assay type: in vivo, nude mice; conditions: Breast MDA-231 (1 study); KPU-02 7.5 mg/kg ip Days 1, 4, 8, 11, 15 + Paclitaxel qdx5
Protocol: The animals used were: female nude mice (nu/ni) (MDA-231 study) or B6D2F1 (B16-F10 studies) mice between 5 and 6 weeks of age (˜20 g, Harlan); group size was 10 mice per group unless otherwise indicated.
The cell lines used were: MDA-MB-231 human breast tumor and B16-F10 murine melanoma cells.
NPI compounds were administered as monotherapy via the intraperitoneal route at the doses indicated for the individual study; for the combination studies the selected reference chemotherapy agents were injected 15-30 min prior to the NPI compound.
Female nude mice were injected in the mammary fat pad with 2×10^6 MDA-231 cells harvested from in vitro cell culture. When the tumor size reached 5 mm×5 mm (about 14-28 days) the animals were matched into treatment and control groups. The study then proceeded as described for the HT-29 model, using paclitaxel as the standard chemotherapy agent.
In this model unless otherwise noted for the individual study, the test compounds were administered via the intraperitoneal route on Days 1, 4, 8, 11 and 15 (q3dx5); paclitaxel was administered via the intraperitoneal route on Days 1-5 (qdx5).
This model involves the placement of the human tumor tissue into the mouse mammary fat pad, a surrogate of the natural environment. In this manner the possibility of a positive effect due to a specific action on the subcutaneous vascular bed is avoided.

P22 rat sarcoma [2] = assay: Tumor necrosis in the P22 rat sarcoma model; conditions: 7.5 and 15 mg/kg IP, 24 hours post-dose
[3] = system: MCF7 cells, GFP-alpha-tubulin; assay: Analysis of microtubule dynamics, time-lapse microscopy; assay type: cell-based, human; conditions: concentrations effecting 25% or 50% of maximal mitotic block
HuVEC cells = assay: Tubulin staining assay, 200 nM, 30 min (Example 15); assay type: cell-based, human
Protocol: Human umbilical vein endothelial cells (HuVECs; Cambrex CC2519A) were maintained at subconfluent densities in EGM-2 (Cambrex) media. […] For tubulin staining assays, HuVEC cells were seeded at a density of 3×10^4 cells/ml in EGM-2 on tissue culture compatible coverslips (Fisher). The plates were returned to the incubator for 2 days.
Stock (20 mM) solutions of the test compounds were prepared in 100% DMSO. 400× concentrated dilutions of the compounds were prepared in 100% DMSO. 5 μl volumes of the dilutions were added to individual wells resulting in a final concentration of 200 nM. […] The plates were returned to the incubator for 30 minutes.
The cells were rinsed in dPBS before fixation in 10% (v/v) neutral buffered formalin for 10 minutes at room temperature. Following fixation, α-tubulin was visualized by indirect immunofluorescence. Specifically, the cells were permeabilized in 0.2% (v/v) triton X-100/dPBS for 10 minutes. The cells were washed prior to transferring the coverslips to a humidified chamber, the coverslips were blocked for two hours in antibody buffer (2% (w/v) BSA/0.1% (v/v) Tween 20/dPBS). The coverslips were incubated with 50 μl of 0.1 μg/ml mouse α-tubulin (Molecular Probes) in antibody buffer for 1 hour before washing and incubation with 50 μl of 1 μg/ml goat anti-mouse FITC (Jackson ImmunoResearch Laboratories) for one hour in the dark. […]

[4] = system: A549 human non small cell lung tumor; assay: A549 Human Lung Tumor Xenograft Model; assay type: in vivo, nude mice; conditions: Lung A549 (1 study); KPU-02 7.5 mg/kg ip qdx5 + Taxotere Days 1, 3, 5
Protocol: (§3) Animals used were (exceptions are indicated for individual studies): female nude mice (nu/nu) between 5 and 6 weeks of age (˜20 g, Harlan); group size was 9-10 mice per group unless otherwise indicated.
as §1, §2
Animals were implanted s.c. by trocar with fragments of A549 tumors harvested from s.c. growing tumors in nude mice hosts. When the tumor size reached 5 mm×5 mm (about 10-17 days) the animals were matched into treatment and control groups.

MAP-rich microtubules = assay: Microtubule mean length distributions, transmission electron microscopy; assay type: biochemical, bovine; conditions: in words
Protocol: Transmission electron microscopy was used to determine the mean length distribution of microtubules in the absence or presence of tested agent. At 75 minutes and prior to sedimentation, 10 μl aliquots from the polymer mass experiments were fixed by dilution into 290 μl PEM100-buffered 0.2% glutaraldehyde. Thirty microliters of fixed sample was settled onto formvar-coated 150 ICG mesh electron microscope grids for 90 seconds. Excess sample was wicked off with Whatman filter paper. Thirty microliters of cytochrome C (1 mg/ml) was applied for 30 seconds to enhance protofilament resolution and facilitate negative staining. Uranyl acetate (1.5%) was applied for 20 seconds and the excess was wicked off Grids were viewed in a Jeol electron microscope-1200 EX11 at 2000× and 30,000× magnification. The Zeiss MOPIII was used to determine microtubule length distributions and mean lengths for at least 100 microtubules per sample.

[5] = system: N202 mammary tumor vasculature; assay: Murine syngeneic pseudo-orthotopic breast cancer model, dorsal skinfold chamber
From the text: A murine syngeneic “pseudo-orthotopic” breast cancer model was used to address these issues. […] To create the “pseudo-orthotopic milieu,” the coverslip of a dorsal skinflap chamber was removed and small pieces of mammary fatpad from donor mice were implanted into the chamber. On top of the fatpad graft, tumor spheroids containing N202 mammary tumor cells transduced with Histone (H2B)-green fluorescent protein (GFP) were applied. The use of H2B-GFP transduced cells allows for visualizing tumor growth and monitoring mitosis and apoptosis.
Fluorescence video microscopy allows for the relatively non-invasive study of tumor microcirculation in conscious mice.
Tumor area, blood flow rate, and vascular density within and surrounding the tumor were visualized. Real-time observations were recorded at various time-points using still photos and video microscopy.

P22 rat sarcoma [6] = assay type: in vivo, rats; conditions: 15 mg/kg IP
Protocol: In contrast, blood flow in non-tumor tissues was affected to a much lesser extent at 1 hour (see FIG. 35).

MCF-7 human breast tumor = assay: MCF-7 Human Breast Tumor Xenograft Model; assay type: in vivo, nude mice; conditions: Breast MCF-7 (2 studies); KPU-02 7.5 mg/kg ip qdx5 + Taxotere Days 1, 3, 5
Protocol: as §3, §1, §2
Female nude mice (˜20 g) were implanted s.c. with 21-day release estrogen (0.25 mg) pellets 24 hours prior to the s.c. implantation with MCF-7 tumor fragments (harvested from s.c. tumors in nude mice hosts). The study then proceeded as described for the HT-29 model, using taxotere as the standard chemotherapy agent.
In this model unless otherwise noted for the individual study, the novel compounds were injected via the intraperitoneal route daily on Days 1-5, inclusive (qdx5); taxotere was administered intravenously on Days 1, 3 and 5 (qodx3).
The doses of the compounds were administered on Days 1, 2, 3, 4, and 7; Taxotere was administered on Days 1, 3 and 7.

MCF7 cells = assay: Immunofluorescence microscopy of spindle and interphase microtubules; assay type: cell-based, human; conditions: at the IC50 for mitotic block, 20 hours
Protocol: MCF7 human breast carcinoma cells (American Type Culture Collection, Manassas, Va.) stably transfected with GFP-alpha-tubulin (Clontech, Palo Alto, Calif.) were cultured in Dulbecco's modified Eagle's medium supplemented with 5% fetal bovine serum, 0.1% penicillin/streptomycin and nonessential amino acids (Sigma) in 250-ml tissue culture flasks or 35-mm six-well plates (doubling time, 29 hours) at 37° C. in 5% CO2.
Cells were prepared as for mitotic progression, except that cells were seeded onto poly-L-lysine (50 μg/ml, Sigma) treated coverslips. On the day of staining, cells were rinsed in PBS and fixed in 10% formalin overnight at 37° C. Cells were rinsed in PBS, permeabilized in methanol at −20° C., and hydrated with PBS. Coverslips were treated with 20% normal goat serum in PBS/BSA (1%) for 1 h at room temperature. Cells were incubated in a mouse monoclonal cocktail of anti-alpha- and beta-tubulin, DM1A/DM1B diluted in PBS/BSA for 1 hour at room temperature, then stained with FITC-conjugated secondary antibody and DAPI. Coverslips were mounted using Prolong antifade media (Molecular Probes, Eugene Oreg.).

[7] = system: bovine brain microtubule protein; assay: Tubulin polymerization assay, turbidity (Example 21); assay type: biochemical; conditions: 5 μM in 1% DMSO
Protocol: Polymerization of bovine brain microtubule protein (Cytoskeleton, Inc., Denver, Colo.) was monitored by an increase in turbidity at 37° C. in microtubule buffer (80 mM PIPES, pH 6.8, 1 mM MgCl2, 1 mM EGTA, 1 mM GTP, 10% glycerol). […] Turbidity was measured as an increase in optical density at 340 nm with a thermo-controlled spectrophotometer (model 680XR microplate Reader™, Bio-Rad Laboratories).

HT-29 human colon cells = assay: Tumor cytotoxicity assay, resazurin fluorescence, 48 h (Example 6); assay type: cell-based; conditions: Example 23
tubulin = tubulin (Bos taurus, UniProt Q6B856); assay: Photoaffinity labeling study of tubulin; assay type: binding; conditions: UV 365 nm, +/- colchicine
tubulin, sequence (Q6B856 whole entry): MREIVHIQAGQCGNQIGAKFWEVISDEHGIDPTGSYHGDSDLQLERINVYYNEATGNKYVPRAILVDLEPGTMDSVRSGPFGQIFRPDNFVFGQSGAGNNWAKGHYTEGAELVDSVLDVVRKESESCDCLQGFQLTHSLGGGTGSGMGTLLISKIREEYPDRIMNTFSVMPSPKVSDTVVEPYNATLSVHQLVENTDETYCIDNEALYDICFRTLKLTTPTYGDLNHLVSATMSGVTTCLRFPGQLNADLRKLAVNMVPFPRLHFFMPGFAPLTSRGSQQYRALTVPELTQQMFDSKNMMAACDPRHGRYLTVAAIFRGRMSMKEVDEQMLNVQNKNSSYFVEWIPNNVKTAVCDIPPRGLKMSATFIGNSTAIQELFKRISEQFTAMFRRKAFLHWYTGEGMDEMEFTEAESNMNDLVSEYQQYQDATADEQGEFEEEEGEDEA
tubulin, sequence (P81947 whole entry, further chain): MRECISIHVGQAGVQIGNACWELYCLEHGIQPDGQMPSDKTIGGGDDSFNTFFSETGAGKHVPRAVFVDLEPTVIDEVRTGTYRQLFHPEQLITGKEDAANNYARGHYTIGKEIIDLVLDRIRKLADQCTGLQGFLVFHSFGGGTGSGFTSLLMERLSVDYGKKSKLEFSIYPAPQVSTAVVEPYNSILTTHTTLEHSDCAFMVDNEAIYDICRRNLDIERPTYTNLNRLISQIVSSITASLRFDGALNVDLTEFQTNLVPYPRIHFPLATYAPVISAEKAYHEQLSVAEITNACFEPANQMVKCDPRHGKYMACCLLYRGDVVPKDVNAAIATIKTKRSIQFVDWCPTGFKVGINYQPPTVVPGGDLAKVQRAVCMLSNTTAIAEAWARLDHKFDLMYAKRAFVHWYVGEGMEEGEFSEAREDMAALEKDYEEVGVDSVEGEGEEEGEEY
From the text: KPU-244 and KPU-244-B1 can both be photoactivated by UV light, resulting in covalent linkage to any protein via the photoreactive benzophenone group. In one embodiment, tubulin is photoaffinity labeled with KPU-244 or KPU-244-B1. Upon irradiation with UV light, the benzophenone group forms a free radical at the carbonyl group, followed by H-abstraction in the acceptor protein, insertion of the benzophenone radical into the abstracted site, and recombination to form the labeled protein.
UV-irradiated and control samples were visualized by 15% SDS-PAGE followed by Western blotting. Biotin-labeled molecular weight markers (Amersham Pharmacia Biotech) were included in each gel. Each gel was electroblotted onto a nitrocellulose membrane (Hybond-ECL, Amersham Pharmacia). The gels were then stained with Coomassie Brilliant Blue (Bio-Rad laboratories) to verify that equivalent amounts of tubulin were loaded in each lane. The nitrocellulose membrane was incubated with 5% skim milk in 100 mM phosphate-buffered saline (PBS, pH 7.4) at room temperature for 1 hour, then washed with 100 mM PBS (pH 7.4) containing 0.1% Tween 20 (PBS-T) for 20 min one time, then twice for 10 min each. The membrane was then incubated with streptavidin-horseradish peroxidase conjugate (diluted 1000-fold with PBS-T) for 1 hour at room temperature, and washed with PBS-T as described above. […]

| Compound | Tumor Regression (#/total) NPI + Reference (HT-29 human colon tumor; ip, 7.5 mg/kg) | dose-dependent effect in the HT-29 model (HT-29 human colon tumor; with CPT-11) | Tumor Growth Inhibition (%) KPU-02 + Reference [1] | Tumor Regression (#/total) NPI + Reference [1] | tumor necrosis (P22 rat sarcoma [2]) | MT dynamic instability [3] | tubulin depolymerization in HuVEC cells (HuVEC cells) | Tumor Growth Inhibition (%) KPU-02 + Reference [4] | Tumor Regression (#/total) NPI + Reference [4] | MT nucleation (MAP-rich microtubules) | tolerability ([5]; i.v. infusion 5-10 mg/kg) | effect on tumor vasculature ([5]; single i.v. treatment) | tumor blood flow (P22 rat sarcoma [6]; 1 hour after administration) | tumor blood flow (P22 rat sarcoma [6]; 24 hours later) | Tumor Regression (#/total) NPI + Reference (MCF-7 human breast tumor) | mitotic cells containing asters or foci of tubulin (MCF7 cells) | tubulin polymerization [7] | IC50 (HT-29 human colon cells) | binding to tubulin by photoaffinity labeling (tubulin) |
| --- | --- | --- | --- | --- | --- | --- | --- | --- | --- | --- | --- | --- | --- | --- | --- | --- | --- | --- | --- |
| CC(C)(C)c1[nH]cnc1/C=c1\[nH]c(=O)/c(=C/c2ccccc2)[nH]c1=O [KPU-02] | 4/30 | 7.5 mg/kg was statistically greater than 2.5 mg/kg | 71% | 0/10 | dose-dependent tumor necrosis | did not have a measurable effect on MT dynamic instability | rapidly induce tubulin depolymerization | 74% | 0/10 | did not affect MT nucleation | well tolerated | rapid collapse of the central vasculature | 23 % of vehicle | 59 % vehicle | 3/20 | 75% |  |  |  |
| CC(C)(C)c1ocnc1/C=c1\[nH]c(=O)/c(=C/c2cccc(C(=O)c3ccc(CNC(=O)CCCC[C@@H]4SC[C@@H]5NC(=O)N[C@@H]54)cc3)c2)[nH]c1=O [KPU-244-B1] |  |  |  |  |  |  |  |  |  |  |  |  |  |  |  |  | inhibit tubulin polymerization | 910 nM | selectively binds and covalently reacts with tubulin at the colchicine binding site |
